Measurements as given in patent US20100227856A1, “NOVEL COMPOUNDS” (SMITHKLINE BEECHAM CORPORATION, priority 2006, published 2010).

Target: T1, TRPV4 channel receptors (Bos taurus, UniProt A0A8F4X677)
T1 construct: obtained using this method in bovine articular chondrocytes; endogenous in cells; host or cells: bovine articular chondrocytes
Assay: Ca2+ influx in bovine articular chondrocytes (Fura-2 fluorescence, FlexStation)
Format: cell-based
From the text: Ca^2+ influx mediated through TRPV4 channel receptors can be measured using articular chondrocytes from such species as, but not limited to, human, rat, canine, rabbit, monkey, and bovine, using standard techniques in the art such as, but not limited to, Fura-2 (Invitrogen/Molecular Probes, Eugene, Oreg.) fluorescence using a FlexStation (manufactured by Molecular Devices, Sunnyvale, Calif.). Table 1 lists biological data for several representative compounds obtained using this method in bovine articular chondrocytes.

T1 sequence (A0A8F4X677 1-871): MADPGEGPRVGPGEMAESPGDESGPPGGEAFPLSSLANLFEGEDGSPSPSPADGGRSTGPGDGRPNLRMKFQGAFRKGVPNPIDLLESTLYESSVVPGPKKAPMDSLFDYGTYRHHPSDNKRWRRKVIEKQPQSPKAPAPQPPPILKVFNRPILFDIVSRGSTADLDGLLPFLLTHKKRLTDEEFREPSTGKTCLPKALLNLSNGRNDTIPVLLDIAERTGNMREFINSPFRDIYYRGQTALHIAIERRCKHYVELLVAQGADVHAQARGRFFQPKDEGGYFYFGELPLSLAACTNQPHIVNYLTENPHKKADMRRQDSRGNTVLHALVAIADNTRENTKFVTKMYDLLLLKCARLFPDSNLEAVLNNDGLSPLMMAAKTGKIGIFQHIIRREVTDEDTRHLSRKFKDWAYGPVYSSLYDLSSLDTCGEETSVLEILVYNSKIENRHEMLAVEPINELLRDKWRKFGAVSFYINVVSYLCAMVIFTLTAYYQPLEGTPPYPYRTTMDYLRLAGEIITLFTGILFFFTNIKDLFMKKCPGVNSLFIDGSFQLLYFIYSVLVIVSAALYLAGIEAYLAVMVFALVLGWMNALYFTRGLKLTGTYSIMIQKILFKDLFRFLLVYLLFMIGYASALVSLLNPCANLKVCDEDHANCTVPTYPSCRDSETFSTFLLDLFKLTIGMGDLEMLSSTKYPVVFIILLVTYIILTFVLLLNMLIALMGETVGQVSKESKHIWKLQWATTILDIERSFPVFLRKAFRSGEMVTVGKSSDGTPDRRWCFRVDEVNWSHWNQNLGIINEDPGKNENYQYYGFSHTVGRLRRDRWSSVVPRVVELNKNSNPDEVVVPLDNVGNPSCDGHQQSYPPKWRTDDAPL

EC50 [nM] | Compound
110 to 2000 | CC(C)C[C@H](NC(=O)c1cc2ccccc2s1)C(=O)NCC1CCCCN1S(=O)(=O)c1ccccc1C#N (stereo partly drawn) [Example 1, N-((1S)-1-{[({1-[(2-cyanophenyl)sulfonyl]-2-piperidinyl}methyl)amino]carbonyl}-3-methylbutyl)-1-benzothiophene-2-carboxamide]
10 to 100 | CC(C)C[C@H](NC(=O)c1cc2ccccc2s1)C(=O)NCCC1CCCCN1S(=O)(=O)c1ccc(Cl)cc1Cl (stereo partly drawn) [Example 3, N-((1S)-1-{[(2-{1-[(2,4-Dichlorophenyl)sulfonyl]-2-piperidinyl}ethyl)amino]carbonyl}-3-methylbutyl)-1-benzothiophene-2-carboxamide]
